Earlier results on one compound are cited in patent US20210401707A1, “AZOXYSTROBIN IN A SULFATE FREE PERSONAL CARE COMPOSITION” (The Procter & Gamble Company, priority 2020, published 2021).

For the compound `CO/C=C(/C(=O)OC)c1ccccc1Oc1cc(Oc2ccccc2C#N)ncn1` [Azoxystrobin], the solubility in water result is “low solubility in water”.
